According to patent US10316008B2, “KCNQ potassium channel agonist, and preparation method therefor and use thereof” (SHANGHAI INSTITUTE OF MATERIA MEDICA, CHINESE ACADEMY OF …, priority 2014, dated 2019):
Entries after “also recorded” stand apart in the source; their conditions may differ. Structures can show the parent of a compound that is named as a salt. Where two headings read alike, the source gives them in different places.

Columns and labels:
[1] = test system: convulsive mice induce by MES; assay: MES (maximum electroshock) induced convulsion model, oral perfusion; format: in vivo, KM mice; conditions: for ED50: Mus musculus, 0.5 h, oral perfusion, MES 30 mins after administration, read-out: ED50 (50% effective dose); for ED50 / efficacy against MES compared with RTG: mice; for protective effect on convulsive mice induce by MES: orally administered
Description: YLS-9A model physiological pharmaceutical electronic stimulator was used in the experiment to induce convulsion of mice, and specific parameters were set as follows: configuration 8, stimulating voltage: 160V, period of stimulation: 5.4 sec. Healthy KM mice (SPF level, male, body weight: 18 to 22 g) were selected for the experiment. After the ear tip of the mice was sufficiently wetted with physiological saline, the mice was electrically stimulated once with ear clip electrode, and tonic hind-limb seizure was deemed as indication of convulsion. The mice were screened one day before the experiment to weed out the dead mice and the ones without generalized tonic seizure. The qualified mice were caged randomly with access to water at liberty. Before the experiment started, the mice were fasted for 8 h.
The compounds to be tested were freshly formulated on the day of experiment. RTG hydrochloride was dissolved with ultrapure water to obtain a solution with desired concentration. K41.HCl and K43.HCl were formulated with 5% DMSO+95% of 1% Tween80, that is, a proper amount of the compound to be tested was weighted and, first, sufficiently dissolved in 5% DMSO, and then added with a desire volume of 1% Tween80 to be sufficiently suspended to form a suspension with a certain drug concentration. The mice screened one day before were randomly grouped with each group having 10 mice, marked, weighted and then administered with the compound to be tested or solvent (5% DMSO+95% (1% Tween 80)) by oral perfusion with administered volume of 0.2 ml/10 g. The dose range for each compound was 1 to 56 mg/kg for RTG, 1 to 40 mg/kg for K41.HCl, and 0.5 to 4 mg/kg for K43.HCl. 30 mins after administration, MES experiment was performed and the experimental parameters were the same as the above. The number of mice with generalized tonic-clonic convulsion in each group was recorded, the protection rate of each of the compounds to be tested on convulsive mice induce by MES was calculated and dose-response curve for each compound was plotted. The dose-response curve for each compound was obtained according to the analysis of Graphpad Prism 5 software, as shown in FIG. 3.

[2] = test system: motor coordination ability of mice; assay: Rotarod experiment, motor coordination ability (acute neurotoxicity); format: in vivo, KM mice; conditions: for P.I (Protective index)=TD50/ED50: TD50 Rotarod / ED50 MES
Method: YLS-4C Rotarod system was used in the experiment, wherein the diameter of the rod was 3 cm and the rotate speed was set at 6 rpm. Healthy KM mice (SPF level) were selected, wherein male and female were equal, the body weight was 18 to 22 g. One day before experiment, the mice were place on the rotarod for training and screening. The tail tip of mice was held to make them creep on the rotarod during the training. […] The mice that jumped on the rotarod or griped the rotarod were weed out. In addition, three time periods were set with 1 min for each. […] The qualified mice were randomly caged according to the gender, and allowed to eat and drink freely.
On the day of the experiment, each compound to be tested was freshly formulated by the same method as described in MES experiment. If the compound was not sufficiently suspended, the suspension was further mixed by ultrasonication for 20 min so as to make the compound sufficiently suspended. […] 30 mins after administration, Rotarod experiment was performed and the experiment parameters were the same as the above. The number of mice that fell off from the rorarod was recorded, and the influence of each compound on motor coordination ability of mice was analyzed. The curve for dose of each compound verse motor deficit (percentage) of mice for each compound was obtained according to the analysis of Graphpad Prism 5 software and was shown in FIG. 4.

[3] = Pharmacokinetics and distribution in brain tissue in mice; format: in vivo, ICR mice; conditions: for Kp: brain/plasma, read-out: AUC0-t ratio (brain/plasma); for Kp / Cmax / Tmax / half-life / MRT inf / AUC(0-inf) / AUC0-t / clearance / Vd / AUC0-∞: mice; for MRT inf: read-out: MRT0-∞; for Vd: read-out: Vss; for bioavailability: oral, ICR mice, intragastric perfusion 5 mg/kg vs intravenous 2 mg/kg, read-out: F (oral bioavailability)
Method: K43.HCl was formulated to a 0.5 mg/ml solution for intragastric perfusion by using 5% DMSO/5% Tween80/[…] physiological saline; to a 0.2 mg/ml solution for intravenous injection by diluting the above solution for intragastric perfusion with physical saline containing 1% Tween 80.
84 healthy ICR mice (male, body weight, 18-20 g) were fasted for 8 h with access to water at liberty before the experiment. The mice were fed at the same time 2 h after administration of the compound.
After administration by intragastric perfusion, mice were sacrificed by cutting abdominal aorta at the time points set as the above with 3 mice for each time point. 0.5 mL of whole blood was collected for each animal, placed into a heparinized test tube and subjected to centrifugation at 11000 rpm for 5 min to separate plasma, which was then cryopreserved in a −20° C. refrigerator. After the animal was sacrificed, its whole brain was collected, washed with ice-cooled physiological saline to remove residual blood, absorbed to dryness, labeled and cryopreserved in a −20° C. refrigerator. After administration by intravenous injection, 0.5 mL of venous blood was collected from venous plexus behind eyeball, placed into a heparinized test tube and subjected to centrifugation at 11000 rpm for 5 min to separate plasma, which was then cryopreserved in a −20° C. refrigerator. The concentration of each compound in plasma and brain tissue was determined by LC-MS/MS.
Pharmacokinetic parameters after administration were calculated according to the obtained data of plasma concentration, using the non-compartmental model of Phoenix 1.3 software (Pharsight Co., USA).

[4] = male, ICR, mouse, po, intragastric perfusion 5 mg/kg
[5] = male, ICR, mouse, po, intragastric perfusion 5 mg/kg, brain
[6] = male, ICR, mouse, po, intragastric perfusion 5 mg/kg, plasma
[7] = male, ICR, mouse, po, intragastric perfusion 5 mg/kg, plasma, read-out: AUC0-t
[8] = male, ICR, mouse, intravenous injection 2 mg/kg, plasma
[9] = male, ICR, mouse, intravenous injection 2 mg/kg, plasma, read-out: AUC0-t
[10] = intragastric perfusion 5 mg/kg, brain

Structure (SMILES) | ED50 [1] | protective effect on convulsive mice induce by MES [1] | P.I (Protective index)=TD50/ED50 [2] | Kp [3, 4] | Cmax [3, 5] | Tmax [3, 5] | half-life [3, 5] | MRT inf [3, 5] | AUC(0-inf) [3, 6] | Cmax [3, 6] | Tmax [3, 6] | half-life [3, 6] | AUC0-t [3, 7] | MRT inf [3, 6] | AUC(0-inf) [3, 8] | clearance [3, 8] | half-life [3, 8] | AUC0-t [3, 9] | MRT inf [3, 8] | Vd [3, 8] | also measured
C#CCN(Cc1ccc(F)cc1)c1cc(C)c(NC(=O)OC)c(C)c1.Cl [K43•HCl, methyl 4-(N-parafluorobenzyl-N-propargyl-amino)-2,6-dimethylphenylaminoformate hydrochloride] | 1.6 mg/kg | dose dependent protective effect | 95.25 | 7.2 | 1430 ng/g | 15 min | 63.6 min | 77.4 min | 189 ng·h/mL | 350 ng/mL | 15 min | 37.2 min | 184 ng·h/mL | 56.4 min | 334 ng·h/mL | 100 mL/min/kg | 24 min | 326 ng·h/mL | 25.8 min | 2.61 L/kg | bioavailability ([3]; male, mouse, plasma): 22.5%; AUC0-t [3, 10]: 1329 ng·h/g; AUC0-∞ [3, 10]: 1346 ng·h/g
C#CCN(Cc1ccc(F)cc1)c1ccc(NC(=O)OC)c(C)c1 [K41•HCl] | 4.8 mg/kg | dose dependent protective effect | 21.54 | 2.6 | 1470 ng/g | 15 min | 37.8 min | 66 min | 654 ng·h/mL | 606 ng/mL | 15 min | 38.4 min | 646 ng·h/mL | 62.4 min | 294 ng·h/mL | 114 mL/min/kg | 29.4 min | 281 ng·h/mL | 27 min | 3.04 L/kg | efficacy against MES compared with RTG ([1]; listed as K31): higher than that of RTG; efficacy against MES compared with RTG ([1]; listed as k41): superior to that of RTG; neurotoxicity compared with RTG [2]: weaker neurotoxicity than RTG; bioavailability ([3]; male, mouse, plasma): 91.9%; AUC0-t [3, 10]: 1680 ng·h/g; AUC0-∞ [3, 10]: 1684 ng·h/g
C#CCN(Cc1ccc(F)cc1)c1cc(C)c(NC(=O)OC)c(C)c1 [Compound K43, methyl 4-(N-parafluorobenzyl-N-propargyl-amino)-2,6-dimethylphenylaminoformate] | – | – | – | ≥ 7 | – | – | – | – | – | – | – | – | – | – | – | – | – | – | – | – | efficacy against MES compared with RTG [1]: higher than that of RTG; also recorded: superior to that of RTG; neurotoxicity compared with RTG [2]: weaker neurotoxicity than RTG
